According to ChEMBL document CHEMBL5634079, “Development of novel celastrol-ligustrazine hybrids as potent peroxiredoxin 1 inhibitors against lung cancer” (Eur J Med Chem, 2023):
Calls of active or inactive are those of the source. No cut-off for these calls is given here.

Experiments:
A549 [1] = assay: Downregulation of PRDX1 gene expression in human A549 cells at 2 to 4 uM by Q-PCR analysis; format: functional, cell-based; conditions: dose 2-4 µM
A549 [2] = assay: Induction of apoptosis in human A549 cells assessed as increase in cleaved caspase-8 expression at 2 to 4 uM by Western blot analysis; format: functional, cell-based; conditions: dose 2-4 µM
A549 [3] = assay: Inhibition of cell migration in human A549 cells at 2 to 4 uM incubated for 24 hrs by inverted microscopic analysis; format: functional, cell-based; conditions: dose 2-4 µM
SK-HEP1 = assay: Antiproliferative activity against human SK-HEP1 cells assessed as inhibition of cell growth incubated for 48 hrs by MTT assay; format: functional, cell-based; conditions: SK-HEP1, 48 h
A549 [4] = assay: Induction of apoptosis in human A549 cells assessed as viable cells at 2 uM incubated for 48 hrs by Annexin V-FITC and PI staining based flow cytometric analysis (reference value: 93.8%); format: functional; conditions: read-out: Activity
[5] = Antiproliferative activity against human LTEP-a2 cells assessed as inhibition of cell growth incubated for 48 hrs by MTT assay; format: functional, cell-based; conditions: LTEP-A2, 48 h
A549 [6] = assay: Induction of apoptosis in human A549 cells assessed as increase in cleaved PARP expression at 2 to 4 uM by Western blot analysis; format: functional, cell-based; conditions: dose 2-4 µM
Peroxiredoxin-1 = target: T1, Peroxiredoxin-1 (Homo sapiens, UniProt Q06830); assay: Inhibition of PRDX1 (unknown origin) in presence of cofactor A/cofactor B/NADPH incubated for 25 mins; conditions: read-out: IC50
T1 sequence (Q06830 whole entry): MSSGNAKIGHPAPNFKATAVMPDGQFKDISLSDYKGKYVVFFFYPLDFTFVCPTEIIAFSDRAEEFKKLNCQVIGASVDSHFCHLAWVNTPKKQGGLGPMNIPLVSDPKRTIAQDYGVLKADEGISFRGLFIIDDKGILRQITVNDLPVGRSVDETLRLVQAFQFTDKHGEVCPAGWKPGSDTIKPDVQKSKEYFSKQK

A549 [7] = assay: Downregulation of PRDX1 level in human A549 cells at 2 to 4 uM by Western blot analysis; format: functional, cell-based; conditions: dose 2-4 µM
[8] = Toxicity in C57BL/6J mouse implanted with mouse Lewis lung carcinoma cell line assessed as kidney damage at 0.5 to 1 mg/kg, ip administered every day for 19 days; format: organism-based; conditions: in vivo, 456 h, dose 0.5-1 mg/kg, time 19 day
A549 [9] = assay: Induction of intracellular ROS generation in human A549 cells at 2 to 4 uM by DCFH-DA staining based flow cytometry analysis; format: functional, cell-based; conditions: dose 2-4 µM, time 6.0 hrs, TDE = time-dependent effect
A549 [10] = assay: Downregulation of PRDX2 level in human A549 cells at 2 to 4 uM by Western blot analysis; format: functional, cell-based; conditions: dose 2-4 µM
A549 [11] = assay: Induction of apoptosis in human A549 cells assessed as early apoptotic cells at 2 uM incubated for 48 hrs by Annexin V-FITC and PI staining based flow cytometric analysis (reference value: 0.76%); format: functional
A549 [12] = assay: Induction of cell cycle arrest in human A549 cells assessed as decrease in CDK2 level at 2 to 4 uM by Western blot analysis; format: functional, cell-based; conditions: dose 2-4 µM
A549 [13] = assay: Antiproliferative activity against human A549 cells assessed as inhibition of cell growth incubated for 48 hrs by MTT assay; format: functional, cell-based; conditions: A549, 48 h
A549 [14] = assay: Induction of cell cycle arrest in human A549 cells assessed as decrease in CDK4 level at 2 to 4 uM by Western blot analysis; format: functional, cell-based; conditions: dose 2-4 µM
[15] = Toxicity in C57BL/6J mouse implanted with mouse Lewis lung carcinoma cell line assessed as liver damage at 0.5 to 1 mg/kg, ip administered every day for 19 days; format: organism-based; conditions: in vivo, 456 h, dose 0.5-1 mg/kg, time 19 day
A549 [16] = assay: Inhibition of ERK phosphorylation in human A549 cells at 2 to 4 uM by Western blot analysis; format: cell-based; conditions: dose 2-4 µM
A549 [17] = assay: Induction of apoptosis in human A549 cells assessed as early apoptotic cells at 4 uM incubated for 48 hrs by Annexin V-FITC and PI staining based flow cytometric analysis (reference value: 0.76%); format: functional
A549 [18] = assay: Induction of apoptosis in human A549 cells assessed as decrease in PCNA level at 2 to 4 uM by Western blot analysis; format: functional, cell-based; conditions: dose 2-4 µM
A549 [19] = assay: Induction of apoptosis in human A549 cells assessed as late apoptotic cells at 4 uM incubated for 48 hrs by Annexin V-FITC and PI staining based flow cytometric analysis (reference value: 0.73%); format: functional
A549 [20] = assay: Induction of apoptosis in human A549 cells assessed as increase in cleaved caspase-3 expression at 2 to 4 uM by Western blot analysis; format: functional, cell-based; conditions: dose 2-4 µM
A549 [21] = assay: Inhibition of AKT phosphorylation in human A549 cells at 2 to 4 uM by Western blot analysis; format: cell-based; conditions: dose 2-4 µM
[22] = Antitumor activity against mouse Lewis lung carcinoma cell line implanted in C57BL/6J mouse assessed as tumor growth inhibition at 1 mg/kg, ip administered every day for 19 days; format: functional; conditions: 456 h, time 19 day, read-out: TGI
A549 [23] = assay: Induction of apoptosis in human A549 cells assessed as necrotic cells at 2 uM incubated for 48 hrs by Annexin V-FITC and PI staining based flow cytometric analysis (reference value: 4.68%); format: functional
A549 [24] = assay: Induction of intracellular ROS generation in human A549 cells at 2 to 4 uM incubated for 6 hrs by DCFH-DA staining based flow cytometry analysis; format: functional, cell-based; conditions: dose 2-4 µM
A549 [25] = assay: Inhibition of cell invasion in human A549 cells at 2 to 4 uM by crystal violet staining based microscopic analysis; format: functional; conditions: dose 2-4 µM, time 12-48 hrs, TDE = time-dependent effect
Lewis lung carcinoma [26] = assay: Antitumor activity against mouse Lewis lung carcinoma cell line implanted in C57BL/6J mouse assessed as tumor cell contraction at 0.5 to 1 mg/kg, ip administered every day for 19 days by H and E staining based analysis; format: functional, organism-based; conditions: dose 0.5-1 mg/kg, time 19.0 day
Lewis lung carcinoma [27] = assay: Antitumor activity against mouse Lewis lung carcinoma cell line implanted in C57BL/6J mouse assessed as reduction in tumor cell proliferation by measuring reduction in Ki67 expression at 0.5 to 1 mg/kg, ip administered every day for 19 days; format: functional, organism-based; conditions: dose 0.5-1 mg/kg, time 19.0 day
A549 [28] = assay: Induction of apoptosis in human A549 cells assessed as viable cells at 4 uM incubated for 48 hrs by Annexin V-FITC and PI staining based flow cytometric analysis (reference value: 93.8%); format: functional; conditions: read-out: Activity
A549 [29] = assay: Inhibition of PI3K phosphorylation in human A549 cells at 2 to 4 uM by Western blot analysis; format: cell-based; conditions: dose 2-4 µM
A549 [30] = assay: Inhibition of cell invasion in human A549 cells incubated for 12 to 48 hrs by crystal violet staining based microscopic analysis; format: functional; conditions: dose 2-4 µM, time 12-48 hrs
[31] = Antitumor activity against mouse Lewis lung carcinoma cell line implanted in C57BL/6J mouse assessed as tumor growth inhibition at 0.5 mg/kg, ip administered every day for 19 days; format: functional; conditions: 456 h, time 19 day, read-out: TGI
MDA-MB-231 = assay: Antiproliferative activity against human MDA-MB-231 cells assessed as inhibition of cell growth incubated for 48 hrs by MTT assay; format: functional, cell-based; conditions: MDA-MB-231, 48 h
A549 [32] = assay: Downregulation of PRDX6 level in human A549 cells at 2 to 4 uM by Western blot analysis; format: functional, cell-based; conditions: dose 2-4 µM
[33] = target: RAF proto-oncogene serine/threonine-protein kinase (Homo sapiens) (UniProt P04049); assay: Inhibition of C-RAF phosphorylation in human A549 cells at 2 to 4 uM by Western blot analysis; format: cell-based; conditions: dose 2-4 µM
Chain of RAF proto-oncogene serine/threonine-protein kinase (Homo sapiens) (P04049 whole entry): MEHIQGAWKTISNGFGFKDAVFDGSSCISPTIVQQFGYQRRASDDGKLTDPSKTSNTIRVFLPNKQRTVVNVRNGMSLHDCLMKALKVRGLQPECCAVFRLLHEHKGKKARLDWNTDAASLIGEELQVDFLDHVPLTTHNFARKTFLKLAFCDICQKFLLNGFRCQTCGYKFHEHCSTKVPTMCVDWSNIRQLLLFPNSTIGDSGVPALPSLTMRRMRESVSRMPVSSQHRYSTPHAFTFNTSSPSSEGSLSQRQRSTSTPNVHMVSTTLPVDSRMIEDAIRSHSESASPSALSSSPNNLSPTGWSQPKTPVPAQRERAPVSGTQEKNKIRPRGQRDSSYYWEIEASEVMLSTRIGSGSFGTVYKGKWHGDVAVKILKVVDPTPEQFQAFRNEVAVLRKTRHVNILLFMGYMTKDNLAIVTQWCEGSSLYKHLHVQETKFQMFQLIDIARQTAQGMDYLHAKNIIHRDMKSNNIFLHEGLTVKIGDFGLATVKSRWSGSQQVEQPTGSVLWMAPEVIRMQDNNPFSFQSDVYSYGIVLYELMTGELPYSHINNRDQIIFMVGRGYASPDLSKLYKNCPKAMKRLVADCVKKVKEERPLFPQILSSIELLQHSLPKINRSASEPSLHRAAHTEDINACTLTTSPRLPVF

For CC1=C(OC(=O)/C=C/c2ccccc2)C(=O)C=C2C1=CC=C1[C@@]2(C)CC[C@@]2(C)[C@@H]3C[C@](C)(C(=O)NCc4nc(C)c(C)nc4C)CC[C@]3(C)CC[C@]12C, the Activity (A549 [1]) was “Active”, the Activity (A549 [2]) was “Active” and the inhibition (A549 [3]) was “Active”. It also gave an IC50 (SK-HEP1) of 2420 nM, a viability at 2 µM (A549 [4]) of 88.4% and an IC50 [5] of 2930 nM. The Activity (A549 [6]) was “Active”, the IC50 (Peroxiredoxin-1) was 164 nM and the Activity (A549 [7]) was “Active”. The Activity [8] was “Non-Toxic”, the Activity (A549 [9]) was “Tde” and the Activity (A549 [10]) was “Active”. For the same compound, the Activity (A549 [11]) was 3.13%, the Activity (A549 [12]) was “Active” and the IC50 (A549 [13]) was 1920 nM. The Activity (A549 [14]) was “Active”, the Activity [15] was “Non-Toxic” and the inhibition (A549 [16]) was “Active”. The Activity (A549 [17]) was 18.5%, the Activity (A549 [18]) was “Active” and the Activity (A549 [19]) was 33.4%. The Activity (A549 [20]) was “Active”, the inhibition (A549 [21]) was “Active” and the inhibition in vivo at 1 mg/kg [22] was 77.4%. The Activity (A549 [23]) was 3.57%, the Activity (A549 [24]) was “Active” and the inhibition (A549 [25]) was “Tde”. The Activity (Lewis lung carcinoma [26]) was “Active”, the Activity (Lewis lung carcinoma [27]) was “Active” and the viability at 4 µM (A549 [28]) was 45.1%. For the same compound, the inhibition (A549 [29]) was “Active”, the inhibition (A549 [30]) was “Dose-Dependent Effect” and the inhibition in vivo at 0.5 mg/kg [31] was 69.9%. For the same compound, the IC50 (MDA-MB-231) was 2670 nM, the Activity (A549 [32]) was “Active” and the inhibition [33] was “Active”.
